From publication PMC10975178, “Evaluation on the Potential for Hepatotoxic Components from Herba Epimedii to Induce Apoptosis in HepG2 Cells and the Analysis of the Influence of Metabolism in Liver Microsomes” (Molecules, 2024)
Like-named read-outs stand apart in the source and are kept apart here.

Legend:
in vitro [1] = format: in vitro ADME, mice; details: mouse, microsomes; for amount remaining: 1 h, 5 μM
in vitro [2] = format: in vitro ADME, rhesus monkeys; details: rhesus monkey, microsomes; for amount remaining: 1 h, 5 μM
caspase-9 = test: Western blot, caspase-9 expression in HepG2 cells; format: cell-based; details: 24 h, high concentration (sagittatoside A 49, icariside I 50, baohuoside I 32, icaritin 3.8 μg/mL), vs untreated cells
Experimental: To explore the mechanism of apoptosis induced by the hepatotoxic compounds, the expression of key proteins related to apoptosis, including Bax, Bcl-2, Caspase-3 and Caspase-9, was assessed by western blotting. HepG2 cells were treated with different concentrations of the hepatotoxic compounds for 24 h and collected with a cell scraper. The concentrations of sagittatoside A were set to 12.2, 24.5, and 49 μg/mL; those of icariside I were 12.5, 25, and 50 μg/mL; baohuoside I was used at 8, 16, and 32 μg/mL; and icaritin was tested at 0.9, 1.9 and 3.8 μg/mL. The cells were washed twice with PBS and lysed in total protein cell lysis buffer. Protein concentrations were determined using a BCA protein assay kit (Thermo Fisher Scientific, Waltham, MA, USA). Then, to destroy the 3-dimensional protein structure, the proteins in the loading buffer were heated at 95 °C for 5 min. An equal amount of protein from each sample was separated by SDS-PAGE on 10% SDS–polyacrylamide gels. After the protein was transferred to a polyvinylidene difluoride membrane (Millipore, Bedford, MA, USA), the membrane was incubated in blocking buffer (5% nonfat dairy milk in TBST) for 2 h and probed with various antibodies (1:1000) overnight at 4 °C. The membrane was then probed with a secondary antibody (1:5000) for 2 h at room temperature, and detection was performed with an enhanced chemiluminescence kit (Millipore, Bedford, MA, USA). β-Actin was used as the control to confirm equal loading. Densitometry index analysis of the bands was conducted using a gel imagery system. The changes in the protein expression levels are expressed as percentages relative to the levels measured in the corresponding control groups.

[3] = format: in vitro ADME, SD rats; details: SD, rat, microsomes, 1 h, 5 μM
HepG2 cells = test: HepG2 cell apoptosis after incubation of the compound with human liver microsomes (metabolism mixture); format: cell-based; details: mixture on HepG2 cells 24 h
Experimental: HepG2 cells were cultured in Roswell Park Memorial Institute (RPMI) 1640 medium (GIBCO, Grand Island, NY, USA) supplemented with 10% heat-inactivated fetal bovine serum (PAN Biotech GmbH, Aidenbach, Germany), 100 U/mL penicillin, and 100 μg/mL streptomycin. The cells were maintained in a humidified atmosphere with 5% CO2 at 37 °C. Upon reaching 90% confluence, the cells were prepared as single-cell suspensions at a density of 1 × 10^4 cells/mL by treatment with 0.25% trypsin with 0.02% EDTA and then dispensed into 12-well plates (Corning, NY, USA) with a total volume of 1.5 mL per well. After culturing for 24 h, the medium was discarded, and the cells were incubated with fresh medium or medium containing different hepatotoxic compounds at various concentrations for an additional 24 h. […] After treatment, the cells were collected for apoptosis analysis. To investigate the effects of the hepatotoxic compounds on HepG2 cell apoptosis, flow cytometry was performed with a FACSCalibur flow cytometer (BD Biosciences) using an Annexin V-FITC apoptosis detection kit. The cells were prepared according to the manufacturer’s instructions. Briefly, the collected cell pellets were washed three times by centrifugation at 2000 rpm and 4 °C for 5 min with PBS and resuspended in binding buffer. Then, the cells were incubated with Annexin V-FITC for 15 min, propidium iodide (PI) was added, and the cells were incubated for another 5 min. The whole labeling process was performed in the dark. After fluorescent labeling, the cell suspension was immediately analyzed by flow cytometry. Cells in the early phases of apoptosis can bind Annexin V-FITC but exclude PI, while cells in late apoptosis or those that are necrotic can be stained with Annexin V-FITC and PI simultaneously. The incubation mixtures were prepared following the instructions from the manufacturer of the metabolic stability kits and contained sagittatoside A, icariside I, baohuoside I, and icaritin, of which the final concentrations were 49, 50, 32 and 3.8 μg/mL. […]

in vitro [4] = format: in vitro ADME, beagle dogs; details: beagle, dog, microsomes; for amount remaining: 1 h, 5 μM
in vitro [5] = format: in vitro ADME, rhesus monkeys; details: rhesus monkey, microsomes; for final amount remaining: 60 min, 5 μM

| Structure (SMILES) | amount remaining (in vitro [1]) | amount remaining (in vitro [2]) | caspase-9 expression (caspase-9) | amount remaining [3] | apoptosis rate, metabolism mixture (HepG2 cells; 32 μg/mL incubated 30 min with human liver microsomes (phase I and II), insignificant) | CLint scaled at 5 μM (in vitro [4]) | amount remaining (in vitro [4]) | final amount remaining (in vitro [5]) | CLint scaled at 5 μM (in vitro [1]) | CLint scaled at 5 μM (in vitro [2]) | apoptosis rate, metabolism mixture (HepG2 cells; 50 μg/mL incubated 30 min with human liver microsomes (phase I and II), p < 0.05) | CLint scaled at 5 μM (in vitro [5]) | apoptosis rate, metabolism mixture (HepG2 cells; 3.8 μg/mL incubated 30 min with human liver microsomes (phase I and II), p < 0.01) |
| --- | --- | --- | --- | --- | --- | --- | --- | --- | --- | --- | --- | --- | --- |
| COc1ccc(-c2oc3c(CC=C(C)C)c(O)cc(O)c3c(=O)c2O[C@@H]2O[C@@H](C)[C@H](O)[C@@H](O)[C@H]2O)cc1 [baohuoside I] | 28.58 ± 4.12% | 12.41 ± 1.02% | significant increase | 8.52 ± 0.15% | 3.40 ± 0.19% | 27.6 mL/min/kg | 11.74 ± 0.78% | 0.86 ± 0.17% |  |  |  |  |  |
| COc1ccc(-c2oc3c(CC=C(C)C)c(O[C@@H]4O[C@H](CO)[C@@H](O)[C@H](O)[C@H]4O)cc(O)c3c(=O)c2O)cc1 [icariside I] | 7.69 ± 1.17% | 6.50 ± 0.49% | significant increase | 2.38 ± 0.32% |  | 25.2 mL/min/kg | 34.93 ± 2.83% | 17.23 ± 5.20% | 80.4 mL/min/kg | 38.1 mL/min/kg | 3.86 ± 0.22% | 36.4 mL/min/kg |  |
| COc1ccc(-c2oc3c(CC=C(C)C)c(O)cc(O)c3c(=O)c2O)cc1 [icaritin] | 28.55 ± 0.04% | 24.73 ± 2.38% | significant increase | 48.95 ± 4.13% |  |  | 16.75 ± 0.20% | 14.86 ± 0.76% |  |  |  |  | 5.61 ± 0.83% |
